From the SangsterLogP compilation

For `CCCC(=NOCC)C1C(=O)CC2(CCCCC2C)OC1=O` (centres undefined), the logP was 3.9.
Work on `CCCC(=NOCC)C1C(=O)CC2(C=CCCC2)OC1=O` (centres undefined) yielded a logP of 3.2.
`CCCC(=NOCC)C1C(=O)CC2(CCC(C(C)(C)C)CC2)OC1=O` (centres undefined) gave a logP of 5.3.
Work on `CCCC(=NOCC)C1C(=O)CC(C)(C2CC2)OC1=O` (centres undefined) yielded a logP of 3.28.
For `CCCC(=NOCC)C1C(=O)CC2(CCC(C)CC2)OC1=O` (centres undefined), the logP was 4.07.
`CCCC(=NOCC)C1C(=O)CC2(CC(C)CC(C)C2)OC1=O` (centres undefined) showed a logP of 4.48.
`CCCC(=NOCC)C1C(=O)CC2(CCCCC2)OC1=O` (centres undefined) gave a logP of 3.62.
For `CCCC(=NOCC)C1C(=O)CC2(CCC(CC)CC2)OC1=O` (centres undefined), the logP was 4.48.
`CCCC(=NOCC)C1C(=O)CC2(CCSCC2)OC1=O` (centres undefined) gave a logP of 2.9.
Compound `CC=C(C)C1(C)CC(=O)C(C(CCC)=NOCC)C(=O)O1` (centres undefined) has a logP of 3.4.
`CCCC(=NOCC)C1C(=O)CC(c2ccccc2)(c2ccccc2)OC1=O` (centres undefined) showed a logP of 4.75.
Compound `CCCC(=NOCC)C1C(=O)CC2(CCCC2)OC1=O` (centres undefined) has a logP of 3.22.
For `CCCC(=NOCC)C1C(=O)CC2(CCCc3ccccc32)OC1=O` (centres undefined), the logP was 5.
For `CCCC(=NOCC)C1C(=O)CC2(CCC(C)C2)OC1=O` (centres undefined), the logP was 3.66.
